Test results as given in patent publication US20240262863A1, “PEPTIDE FRAGMENT AND USE THEREOF” (TOAGOSEI CO., LTD., priority 2021, published 2024).
FAM = 5(6)-carboxyfluorescein

Test system: HeLa cells
Test: Evaluation of cell membrane penetrating ability of FAM-labelled constructs by flow cytometry
Format: cell-based, human
Conditions: for MFI (mean fluorescent intensity): 10 μM in culture solution, 0.5% DMSO, 20 h incubation at 37° C., flow cytometer detector FL2; for MFI value compared to Example 2: 10 μM, 20 h incubation
Protocol: The cell membrane penetrating ability of samples 1 to 3 was evaluated using HeLa cells (an established cell line derived from human cervical cancer cells) as eukaryotic cells. […] In addition, “FAM” in Table 2 indicates the abovementioned fluorescent dye.
HeLa cells were cultured in DMEM (Dulbecco's modified Eagle's medium, manufactured by Fuji Film Wako Pure Chemical Industries, Cat. No. 043-30085) containing 10% FBS (fetal bovine serum), which is an ordinary culture medium.
HeLa cells adhering to the culture plate were washed with PBS, 0.25% trypsin/EDTA solution was added, and the cells were incubated for 3 min at 37° C. After incubation, the same DMEM medium including 10% FBS was added to deactivate the trypsin, and the cells were then precipitated by centrifugation for 5 min at 150×g. The supernatant produced by centrifugation was removed, and the same DMEM including 10% FBS was added to the precipitate (cell pellet) to prepare an approximately 1×10^5 cells/mL cell suspension. A total of 2 mL of the cell suspension was added to the wells of a commercial 6-hole (well) plate (AGC Techno Glass Co., Ltd) to seed the cells (at approximately 2×10^5 cells/well). Subsequent culturing for 3 h at 37° C. under conditions of 5% CO2 caused the cells to adhere to the bottom of the wells.
Next, the above 2 mM sample solution 1 was diluted with DMEM including 10% FBS to prepare a sample solution 1 in which the concentration of Sample 1 was 20 μM. A total of 1 mL of the culture supernatant was removed from the wells after the 3 h of culture, and 1 mL of the 20 μM sample solution 1 was added to the wells (that is, the concentration of Sample 1 in the culture solution in the wells was made 10 μM and the DMSO concentration was made 0.5%). The cells were then incubated for 20 h at 37° C. under conditions of 5% CO2. After such 20-h incubation, the culture supernatant was removed from the wells, and the cells in the wells were washed twice with 1 mL of PBS. A total of 200 μL of 0.25% trypsin/EDTA solution was then added to the wells, and the cells were incubated for 3 min at 37° C. After this incubation, 400 μL of the above DMEM containing 10% FBS was added to the wells to deactivate the trypsin, the cell suspension in the well was thereafter transferred to a tube, and the cells were collected. A total of 600 μL of PBS was then added to the wells to wash the wells. The PBS in the wells was then transferred to the above tube to collect the cells remaining in the wells in the tube. This tube was centrifuged for 5 min under conditions of 210×g at 4° C. After centrifugation the supernatant was removed, and the precipitate (cell pellet) was suspended (washed) in 1 mL of PBS and centrifuged under the same conditions as described above. This operation was repeated twice, and the supernatant was thereafter removed to obtain cells (a cell pellet) that had been cultured in medium including Sample 1.
The cell penetrating ability of Sample 1 was analyzed by using flow cytometry with respect to the cells (cell pellet) obtained above. An On-chip Flow cytometer (manufactured by On-chip Biotechnologies Co., Ltd.) was used as the flow cytometer.
For this analysis, the cell pellet obtained above was suspended in 50 μL of PBS. A total of 50 μL of 2× sample buffer for flow cytometry was further added to this suspension to prepare a cell suspension for analysis.
Gating was performed using the flow cytometer on the basis of forward scatter (FSC) and side scatter (SSC), a gate was set for the cell population under analysis, and fluorescent intensity was measured for the cell population within this gate. Analysis was performed so that the cell population was composed of about 10,000 cells. Fluorescent intensity was measured using the fluorescence detector FL2 (optimal detection wavelength close to 543 nm) of the flow cytometer, which can detect the fluorescent wavelength of FAM. […]

| Substance | MFI (mean fluorescent intensity) | MFI value compared to Example 2 |
| --- | --- | --- |
| 5(6)-carboxyfluorescein [Example 4, reference compound] | 14.3 | – |
| FAM-VVKSLVKVVKSLVK-CONH2 ({FAM}-VVKSLVKVVKSLVK-NH2) [Example 1] | 1591 | more than twice |
| FAM-VVRSLVKVVRSLVK-CONH2 ({FAM}-VVRSLVKVVRSLVK-NH2) [Example 2] | 715 | – |
| FAM-VVRSLVRVVRSLVR-CONH2 ({FAM}-VVRSLVRVVRSLVR-NH2) [Example 3] | 489 | greatly reduced |
